Drawing on ChEMBL document CHEMBL4049381 (Medchemcomm, 2016), this text covers Drug uptake and Km for eight molecules.

Series [1] concerns the target T1, Solute carrier organic anion transporter family member 2B1 (Homo sapiens, UniProt O94956, R607A). Put plainly: Drug uptake assessed as human OATP2B1 R607A mutant expressed in Xenopus laevis oocyte mediated drug accumulation at 1 uM after 180 mins by LC-MS/MS method relative to wild type protein. The format is ADME. The settings on record: 3 h.
In series [2] the target is T2, Solute carrier organic anion transporter family member 2B1 (Homo sapiens, UniProt O94956, H618Q). Put plainly: Drug uptake assessed as human OATP2B1 H618Q mutant expressed in Xenopus laevis oocyte mediated drug accumulation at 1 uM after 180 mins by LC-MS/MS method relative to wild type protein. The format is ADME. The note with it: 3 h.
T2 sequence (O94956 whole entry T392I/H618Q): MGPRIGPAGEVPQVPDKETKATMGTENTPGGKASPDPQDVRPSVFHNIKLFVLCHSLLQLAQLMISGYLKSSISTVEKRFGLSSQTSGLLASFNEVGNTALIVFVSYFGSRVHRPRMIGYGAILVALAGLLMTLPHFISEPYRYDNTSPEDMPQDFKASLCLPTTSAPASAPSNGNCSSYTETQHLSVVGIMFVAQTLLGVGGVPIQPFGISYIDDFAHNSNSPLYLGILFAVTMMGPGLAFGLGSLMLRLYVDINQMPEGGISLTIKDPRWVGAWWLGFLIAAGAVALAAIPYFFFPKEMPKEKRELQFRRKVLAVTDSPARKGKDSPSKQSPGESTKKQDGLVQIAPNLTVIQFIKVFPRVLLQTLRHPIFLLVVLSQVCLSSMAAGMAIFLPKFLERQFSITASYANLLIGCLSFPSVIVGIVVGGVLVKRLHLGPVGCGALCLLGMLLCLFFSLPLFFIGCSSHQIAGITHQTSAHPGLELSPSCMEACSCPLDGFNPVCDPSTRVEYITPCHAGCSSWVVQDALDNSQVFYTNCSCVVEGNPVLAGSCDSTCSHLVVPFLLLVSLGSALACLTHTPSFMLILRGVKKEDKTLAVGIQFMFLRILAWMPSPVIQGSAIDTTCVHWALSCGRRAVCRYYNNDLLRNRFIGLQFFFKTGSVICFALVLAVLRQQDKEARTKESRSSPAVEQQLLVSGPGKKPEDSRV
Series [3] deals with T3, Solute carrier organic anion transporter family member 2B1 (Homo sapiens, UniProt O94956).
T3 sequence (O94956 whole entry): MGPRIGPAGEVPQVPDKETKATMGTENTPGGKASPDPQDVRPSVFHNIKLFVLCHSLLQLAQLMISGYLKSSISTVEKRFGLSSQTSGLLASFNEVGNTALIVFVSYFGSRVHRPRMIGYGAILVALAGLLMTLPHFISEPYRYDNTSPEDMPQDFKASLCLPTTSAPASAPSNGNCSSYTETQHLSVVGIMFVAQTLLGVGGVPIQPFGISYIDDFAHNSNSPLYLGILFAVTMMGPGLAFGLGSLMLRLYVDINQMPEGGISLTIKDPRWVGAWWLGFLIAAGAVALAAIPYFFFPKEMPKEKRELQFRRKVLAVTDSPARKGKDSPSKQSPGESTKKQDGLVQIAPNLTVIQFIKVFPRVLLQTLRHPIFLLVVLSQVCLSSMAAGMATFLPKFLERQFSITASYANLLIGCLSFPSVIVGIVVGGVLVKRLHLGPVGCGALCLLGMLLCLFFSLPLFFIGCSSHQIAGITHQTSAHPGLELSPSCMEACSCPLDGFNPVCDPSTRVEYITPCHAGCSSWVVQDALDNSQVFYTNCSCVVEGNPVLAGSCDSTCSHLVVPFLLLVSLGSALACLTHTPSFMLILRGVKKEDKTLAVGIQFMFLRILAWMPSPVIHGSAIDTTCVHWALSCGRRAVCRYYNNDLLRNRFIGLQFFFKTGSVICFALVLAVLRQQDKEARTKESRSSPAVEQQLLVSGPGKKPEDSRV
Put plainly: Drug uptake assessed as human OATP2B1 expressed in Xenopus laevis oocyte mediated drug accumulation per 180 mins per oocyte at 1 uM by LC-MS/MS method. The format is ADME. The note with it: 3 h.

Series [4] deals with T4, Solute carrier organic anion transporter family member 2B1 (Homo sapiens, UniProt O94956, H579Q). Put plainly: Drug uptake assessed as human OATP2B1 H579Q mutant expressed in Xenopus laevis oocyte mediated drug accumulation at 1 uM after 180 mins by LC-MS/MS method relative to wild type protein. The format is ADME. The settings on record: 3 h.
T4 sequence (O94956 whole entry T392I/H579Q): as the sequence (O94956 whole entry T392I/H618Q) above, with H579Q, Q618H counted along it
For series [5], the target named is T3, Solute carrier organic anion transporter family member 2B1. Put plainly: Drug uptake assessed as human OATP2B1 expressed in Xenopus laevis oocyte mediated drug accumulation per 30 mins per oocyte at 0.003 uM by LC-MS/MS method. The format is ADME. The settings on record: 0.5 h.
The target of series [6] is T2, Solute carrier organic anion transporter family member 2B1. The series can be described thus: Drug uptake assessed as human OATP2B1 H618Q mutant expressed in Xenopus laevis oocyte mediated drug accumulation at 0.003 uM after 30 mins by LC-MS/MS method relative to wild type protein. The format is ADME. The settings on record: 0.5 h.
In series [7] the target is T4, Solute carrier organic anion transporter family member 2B1. Put plainly: Drug uptake assessed as human OATP2B1 H579Q mutant expressed in Xenopus laevis oocyte mediated drug accumulation at 0.003 uM after 30 mins by LC-MS/MS method relative to wild type protein. The format is ADME. The settings on record: 0.5 h.
The target of series [8] is T1, Solute carrier organic anion transporter family member 2B1. The series can be described thus: Drug uptake assessed as human OATP2B1 R607A mutant expressed in Xenopus laevis oocyte mediated drug accumulation at 0.003 uM after 30 mins by LC-MS/MS method relative to wild type protein. The format is ADME. The settings on record: 0.5 h.
Series [9] has as its system C[C@]12CC[C@@H]3c4ccc(OS(=O)(=O)O)cc4CC[C@H]3[C@@H]1CCC2=O. Put plainly: Substrate activity at human OATP2B1 H579Q mutant high affinity site expressed in Xenopus laevis oocytes assessed as Km for transporter-mediated drug accumulation after 15 mins by Eadie-Hofstee plot method. The format is ADME, cell-based.
Series [10] deals with T4, Solute carrier organic anion transporter family member 2B1. Put plainly: Drug uptake assessed as human OATP2B1 H579Q mutant expressed in Xenopus laevis oocyte mediated drug accumulation at 1 uM after 120 mins by LC-MS/MS method relative to wild type protein. The note with it: 2 h. The format is ADME.
Series [11] deals with T3, Solute carrier organic anion transporter family member 2B1. The series can be described thus: Drug uptake assessed as human OATP2B1 expressed in Xenopus laevis oocyte mediated drug accumulation per 120 mins per oocyte at 1 uM by LC-MS/MS method. The format is ADME. The settings on record: 2 h.
Series [12] addresses T2, Solute carrier organic anion transporter family member 2B1. The series can be described thus: Drug uptake assessed as human OATP2B1 H618Q mutant expressed in Xenopus laevis oocytes mediated drug accumulation at 1 uM after 120 mins by LC-MS/MS method relative to wild type protein. The format is ADME, cell-based. The note with it: 2 h.
The target in series [13] is T1, Solute carrier organic anion transporter family member 2B1. Put plainly: Drug uptake assessed as human OATP2B1 R607A mutant expressed in Xenopus laevis oocyte mediated drug accumulation at 1 uM after 120 mins by LC-MS/MS method relative to wild type protein. The format is ADME. The note with it: 2 h.
Series [14] deals with C[C@]12CC[C@@H]3c4ccc(OS(=O)(=O)O)cc4CC[C@H]3[C@@H]1CCC2=O. Put plainly: Substrate activity at human OATP2B1 H618Q mutant low affinity site expressed in Xenopus laevis oocytes assessed as Km for transporter-mediated drug accumulation after 15 mins by Eadie-Hofstee plot method. The format is ADME, cell-based.
Series [15] has the same test system. Put plainly: Substrate activity at human OATP2B1 H618Q mutant high affinity site expressed in Xenopus laevis oocytes assessed as Km for transporter-mediated drug accumulation after 15 mins by Eadie-Hofstee plot method. The format is ADME, cell-based.
Substrate in series [16]: C[C@]12CC[C@@H]3c4ccc(OS(=O)(=O)O)cc4CC[C@H]3[C@@H]1CCC2=O
The series can be described thus: (§1) Drug uptake assessed as OATP2B1 low affinity site (unknown origin)-mediated drug uptake. The format is ADME, Homo sapiens.

Substrate in series [17]: CC[C@H](C)C(=O)O[C@H]1C[C@H](O)C=C2C=C[C@H](C)[C@H](CC[C@@H](O)C[C@@H](O)CC(=O)O)[C@H]21
The series is described as §1. The format is ADME, Homo sapiens.

Substrate in series [18]: O=C(O)c1cc(/N=N/c2ccc(S(=O)(=O)Nc3ccccn3)cc2)ccc1O
Put plainly: (§2) Drug uptake assessed as OATP2B1 high affinity site (unknown origin)-mediated drug uptake. The format is ADME, Homo sapiens.

Substrate in series [19]: C[C@]12CC[C@@H]3c4ccc(OS(=O)(=O)O)cc4CC[C@H]3[C@@H]1CCC2=O
The series is described as §2. The format is ADME, Homo sapiens.

Substrate in series [20]: CC[C@H](C)C(=O)O[C@H]1C[C@H](O)C=C2C=C[C@H](C)[C@H](CC[C@@H](O)C[C@@H](O)CC(=O)O)[C@H]21
The series is described as §2. The format is ADME, Homo sapiens.

Substrate in series [21]: C[C@]12CC[C@@H]3c4ccc(OS(=O)(=O)O)cc4CC[C@H]3[C@@H]1CCC2=O
Put plainly: Substrate activity at human OATP2B1 low affinity site expressed in Xenopus laevis oocytes assessed as Km for transporter-mediated drug accumulation after 15 mins by Eadie-Hofstee plot method. The format is ADME, cell-based.

Substrate in series [22]: C[C@]12CC[C@@H]3c4ccc(OS(=O)(=O)O)cc4CC[C@H]3[C@@H]1CCC2=O
The series can be described thus: Substrate activity at human OATP2B1 high affinity site expressed in Xenopus laevis oocytes assessed as Km for transporter-mediated drug accumulation after 15 mins by Eadie-Hofstee plot method. The format is ADME, cell-based.

T1 sequence (O94956 whole entry T392I/R607A): as the sequence (O94956 whole entry T392I/H618Q) above, with R607A, Q618H counted along it

Regarding `CC[C@H](C)C(=O)O[C@H]1C[C@H](O)C=C2C=C[C@H](C)[C@H](CC[C@@H](O)C[C@@H](O)CC(=O)O)[C@H]21` [PRAVASTATIN], the Drug uptake was 0.2% in series [1], 40% in series [2], 0.196 µL in [3] and 32.5% in [4].

As to `CCCCC[C@H](O)/C=C/[C@H]1[C@H](O)CC(=O)[C@@H]1C/C=C\CCCC(=O)O` [DINOPROSTONE], the Drug uptake amounted to 0.461 µL in series [5], 97.4% in [6], 138% in series [7] and 45.3% in series [8].

One may read the Km as the concentration of substrate that gives half-maximal velocity. Take “Solute carrier organic anion transporter family member 2B1 (Homo sapiens; H579Q)”: the Michaelis-Menten constant (Km) in series [9] came to 0.18 µM.

As to `CC(C)c1nc(N(C)S(C)(=O)=O)nc(-c2ccc(F)cc2)c1/C=C/[C@@H](O)C[C@@H](O)CC(=O)O` [ROSUVASTATIN], the Drug uptake in series [10] came to 39.8%; in series [11], 2.951 µL; in [12], 33.1%; in series [13] it was 5.79%.

Take `O=C(O)c1cc(/N=N/c2ccc(S(=O)(=O)Nc3ccccn3)cc2)ccc1O` [SULFASALAZINE]: the Drug uptake in series [10] is 41%; in series [11], 1.934 µL; in series [12] it was 22.2%; in [13] it was 7.57%.

On to `CC(C)(C(=O)O)c1ccc(C(O)CCCN2CCC(C(O)(c3ccccc3)c3ccccc3)CC2)cc1` (stereo not given) [FEXOFENADINE], for which the Drug uptake in [10] was 147%; in [11], 0.056 µL; in series [12], 121%; in [13], 28.5%.

“Solute carrier organic anion transporter family member 2B1 (Homo sapiens; H618Q)”: the Km in [14] is 91.1 µM; in series [15], 0.149 µM.

B1: Solute carrier organic anion transporter family member 2B1 (Homo sapiens) (protein)
chain: T3 sequence (O94956 whole entry)
Consider B1, for which the Km was determined as 29.9 µM in series [16]; 225 µM in [17]; 1.73 µM in series [18]; 0.1 µM in [19]; 6.25 µM in [20]; 51.4 µM in [21]. The Km in series [22] is 0.463 µM.
